Among the test systems are DLD-1 colon; DMS 114 small cell lung; DMS 273 small cell lung; HOP-18 NSCLC; KM20L2 colon; M19-MEL melanoma; P388 leukemia; P388/ADR leukemia; SN12K1 renal; SNB-78 CNS; XF 498 CNS; LXFL 529 NSCLC; RXF-631 renal.
Holding throughout (experiment): NCI tumour cell line growth inhibition, 48 h

Structures are written as SMILES.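 How tested: cells in 96-well plates exposed to compound for 48 hours at five concentrations. TGI: concentration producing complete growth inhibition.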

As for `CCOC(=O)CN1CCSC1=NC#N`, the TGI in the test on DLD-1 colon, in the test on DMS 114 small cell lung, in the test on DMS 273 small cell lung, in the test on HOP-18 NSCLC, with KM20L2 colon and with M19-MEL melanoma was > 100 µM in each case. Further, the TGI in the test with P388 leukemia, with P388/ADR leukemia, in the test on SN12K1 renal, in the test on SNB-78 CNS and in the test with XF 498 CNS was > 100 µM in each case.
With `COC(=O)[C@@]12OC[C@]34C([C@@H](O)C1O)[C@@]1(C)CC(=O)C(O)=C(C)C1C[C@H]3OC(=O)[C@H](OC(=O)CC(C)C(F)(F)F)[C@H]42` (stereo partly drawn), the TGI was 0.509 µM in the test with DLD-1 colon; 0.128 µM in the test with DMS 114 small cell lung; 0.0426 µM with DMS 273 small cell lung; 2.79 µM with HOP-18 NSCLC; 0.172 µM with KM20L2 colon; 0.195 µM with LXFL 529 NSCLC. For the same compound, the TGI was 0.205 µM in the test with M19-MEL melanoma, 37.5 µM with SNB-78 CNS and 0.188 µM in the test on XF 498 CNS.
As to `[O-]c1on[n+]2c1c(Nc1ccc(Cl)cc1)nc1ccccc12`, the TGI in the test on DLD-1 colon, in the test with DMS 114 small cell lung, in the test with DMS 273 small cell lung, with KM20L2 colon, with LXFL 529 NSCLC and in the test with M19-MEL melanoma was > 100 µM in each case. The TGI in the test on SNB-78 CNS and in the test with XF 498 CNS was > 100 µM in each case.
For `CC(Oc1ccc(OCC2CCCCC2)cc1)C(=O)N(CCO)CCO` (stereo not drawn), the TGI in the test on DMS 114 small cell lung, with DMS 273 small cell lung, with HOP-18 NSCLC, in the test with LXFL 529 NSCLC, in the test with M19-MEL melanoma and with SNB-78 CNS was > 100 µM in each case. Further, the TGI with XF 498 CNS is > 100 µM.
Regarding `CC(CCc1ccc2c(c1)c(=N)c1ccc(N)cc1n2O)CC(C)(C)C` (stereo not drawn), the TGI in the test with DLD-1 colon came out at 3.5 µM; with DMS 273 small cell lung, 3.85 µM; with HOP-18 NSCLC, 3.35 µM; in the test on KM20L2 colon, 2.74 µM; with M19-MEL melanoma it was 2.98 µM; with SNB-78 CNS it was 4.32 µM. Besides, the TGI with XF 498 CNS worked out at 2.45 µM.
As for `Cn1c(=O)nc2n(-c3ccc(Cl)cc3Cl)c3ccccc3nc-2c1=O`, the TGI stood at 24.5 µM with DLD-1 colon; 4.26 µM in the test on DMS 114 small cell lung; 23 µM in the test on HOP-18 NSCLC; 5.8 µM in the test with KM20L2 colon; 2.91 µM in the test with M19-MEL melanoma; 39.3 µM in the test on SNB-78 CNS. The same compound had a TGI with XF 498 CNS of 0.864 µM.
As for `COC1CC(n2cnc3c(N)ncnc32)OC1CO` (stereo not drawn), the TGI with DLD-1 colon, with DMS 114 small cell lung, with DMS 273 small cell lung, in the test on KM20L2 colon, in the test with LXFL 529 NSCLC and in the test on M19-MEL melanoma was > 100 µM in each case. Further, the TGI in the test on XF 498 CNS was > 100 µM.
On to `CN(C)c1ccc(/C=C/c2cc[n+](C)c3ccccc23)cc1`, for which the TGI with DLD-1 colon was determined as 17.1 µM; in the test with DMS 114 small cell lung it was 9.5 µM; in the test with DMS 273 small cell lung, 10.8 µM; with HOP-18 NSCLC, 19.9 µM; with KM20L2 colon it was 13.1 µM; with LXFL 529 NSCLC it was 13.5 µM. Besides, the values for the TGI in the test with M19-MEL melanoma and with SNB-78 CNS were 14.9 µM and 72.4 µM, respectively.
Regarding `CC(=O)c1cccc(NCn2nnc3ccccc32)c1`, the TGI in the test on DLD-1 colon, in the test with DMS 114 small cell lung, with DMS 273 small cell lung, in the test with HOP-18 NSCLC, in the test on KM20L2 colon and in the test on LXFL 529 NSCLC was > 100 µM throughout. In addition, the TGI with M19-MEL melanoma and with XF 498 CNS was > 100 µM throughout.
Turning to `O=C(Nc1ccc([N+](=O)[O-])cc1)C(=O)C(C(=O)c1ccccc1F)C1OC(=O)c2ccccc21` (stereo not drawn), the TGI was > 100 µM with DLD-1 colon; 98 µM in the test with DMS 114 small cell lung; > 100 µM in the test with DMS 273 small cell lung; > 100 µM with KM20L2 colon; > 100 µM with LXFL 529 NSCLC; > 100 µM with M19-MEL melanoma. For the same compound, the TGI in the test with RXF-631 renal was 84 µM; with SNB-78 CNS it was > 100 µM; with XF 498 CNS, > 100 µM.
With `OC(c1ccccc1)(c1ccccc1)c1cccnc1`, the TGI in the test on DLD-1 colon, in the test on DMS 114 small cell lung, in the test on DMS 273 small cell lung, with HOP-18 NSCLC, with KM20L2 colon and in the test on M19-MEL melanoma was > 100 µM each time. Also, the TGI in the test on SNB-78 CNS and with XF 498 CNS was > 100 µM each time.
`CC(C)=CCC/C(C)=C/Cc1c(O)ccc2c1[nH]c1cc(O)c(C)cc12`: the TGI in the test on DLD-1 colon, in the test on DMS 114 small cell lung, in the test with DMS 273 small cell lung, in the test on KM20L2 colon, in the test with LXFL 529 NSCLC and with M19-MEL melanoma was > 25 µM in each case. Moreover, the TGI with SNB-78 CNS and with XF 498 CNS was > 25 µM throughout.
For the compound `C=CC12CN(C)C3C4COC(CC41)C1(C(=O)Nc4ccccc41)C32` (stereo not drawn), the TGI in the test on DLD-1 colon, in the test on DMS 114 small cell lung, in the test on DMS 273 small cell lung, in the test on HOP-18 NSCLC, with KM20L2 colon and in the test on M19-MEL melanoma was > 200 µM in each case. Besides, the TGI in the test on P388 leukemia is > 133 µM; in the test on P388/ADR leukemia it was > 200 µM; with SN12K1 renal, > 200 µM; with SNB-78 CNS, > 200 µM; with XF 498 CNS, 29.2 µM.

For the origin of these results see PubChem BioAssay (NCI).
